Results taken from patent publication US9713606B2, “Methods for treating pulmonary emphysema using substituted 2-Aza-bicyclo[2.2.1]heptane-3-carboxylic acid (benzyl-cyano-methyl)-amides inhibitors of cathepsin C” (Boehringer Ingelheim International GmbH, priority 2013, dated 2017).
Where two headings read alike, the source gives them in different places.

Assays:
[1] = Determination of metabolic stability with human liver microsomes; type: in vitro ADME; conditions: pooled human liver microsomes, 1 mg/ml protein, 1 μM test compound, 37° C.; for half-life at 1 μM: pH 7.6, read-out: In vitro stability in human liver microsome incubations t½
Excerpt: Determination of Metabolic Stability with Human Liver Microsomes

[2] = biological target: recombinant human Cathepsin K (Homo sapiens (Human), UniProt P43235); assay: Inhibition of human Cathepsin K; type: biochemical; conditions: substrate Z-Gly-Pro-Arg-AMC
Chain of recombinant human Cathepsin K (P43235 115-329): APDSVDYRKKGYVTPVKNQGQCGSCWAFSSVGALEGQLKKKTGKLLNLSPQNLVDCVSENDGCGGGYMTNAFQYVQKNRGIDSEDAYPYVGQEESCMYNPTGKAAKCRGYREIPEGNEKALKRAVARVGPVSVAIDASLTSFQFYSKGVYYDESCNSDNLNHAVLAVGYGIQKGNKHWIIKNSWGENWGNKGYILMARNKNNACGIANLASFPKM
Excerpt: Inhibition of Human Cathepsin K
Materials: Microtiterplates (Optiplate-384 F were purchased from PerkinElmer (Prod. No. 6007270). The substrate Z-Gly-Pro-Arg-AMC was from Biomol (Prod.-No. P-142). L-Cysteine (Prod. No. 168149) was from Sigma. Sodium acetate was from Merck (Prod.-No. 6268.0250), EDTA was from Fluka (Prod.-No. 03680). The inhibitor E-64 was purchased from Sigma (Prod.-No. E3132). The recombinant human Cathepsin K proenzyme was purchased from Biomol (Prod. No. SE-367). All other materials were of highest grade commercially available. […]
5 μL test compound (final concentration 0.1 nM to 100 μM) in aqua bidest (containing 4% DMSO, final DMSO concentration 1%) were mixed with 10 uL of Cathepsin K in assay buffer (final concentration 2 ng/μL) and incubated for 10 min. […] The fluorescence in the wells was determined using a Molecular Devices SpectraMax M5 Fluorescence Reader (Ex 360 nm, Em 460 nm).
Each assay microtiter plate contains wells with vehicle controls (1% DMSO in bidest) as reference for non-inhibited enzyme activity (100% Ctl; high values) and wells with inhibitor (E64 in bidest+1% DMSO, final concentration 1 μM) as controls for background fluorescence (0% Ctl; low values). […]

[3] = tested on: neutrophil elastase activity in U937 cells; assay: Determination of neutrophil elastase activity in U937 cytosolic lysate preparation after incubation with test compound; type: cell-based, human
Method: Determination of Neutrophil Elastase Activity in U937 Cytosolic Lysate Preparation after Incubation with Test Compound Materials:
Optiplate 384F were purchased from PerkinElmer (Prod. No. #6007270). 24 well Nunclon cell culture plates (No. 142475) and 96 well plates (No. 267245) were from Nunc. Dimethylsulfoxid (DMSO) was from Sigma (Prod. No. D8418). Nonidet-P40 (NP40) was from USBiological (Prod. No. N3500)
Substrate, specific for Neutrophil elastase, was from Bachem (MeOSuc-Ala-Ala-Pro-Val-AMC; Prod. No. I-1270).
Human neutrophil elastase was from Calbiochem (Prod. No. 324681)
Tris-buffer (100 mM Tris; 1M NaCL; pH 7.5)
Tris-buffer+HSA 0.1%; Human Serum Albumin from Calbiochem (Cat#. 126658)
Serine-protease buffer (20 mM Tris; 100 mM NaCL; pH 7.5)+0.1% HSA
Serine protease lysis buffer: 20 mM Tris-HCL; 100 mM NaCl pH 7.5; +0.2% Nonidet-P40;
PBS: phosphate buffered saline, without Ca and Mg, from Gibco
U937 from ECACC (Cat. No. 85011440) cultured in suspension at 37° C. and 5% CO2.
Cell density: 0.2-1 Mio. Cells/ml.
Medium: RPMI1640 GlutaMAX (No. 61870) with 10% FCS from Gibco
Cell Seeding and Treatment:
Compounds in 100% DMSO were diluted in Medium (-FCS) with 10% DMSO and further diluted according to the experiment planned.
20 μl of the compound solution was transferred in the respective wells of the 24 well plate and diluted with 2 ml cell suspension/well containing 1'10^5 cells/ml (final concentration of DMSO=0.1%). Compound dilution factor=100 […]
Frozen lysates were thawn at 37° C. for 10 minutes and stored on ice. Protein content was determined with Bradford protein assay. […]
The increase in fluorescence (Ex360 nm/Em 460 nm) is determined over 30 minutes with a Molecular Device Spectramax M5 Fluorescence Reader. […] The amount of neutrophil elastase (ng/ml) is calculated using the standard curve and the Spectramax software. […] Percent inhibition in the compound-treated lysate samples is calculated relative to the DMSO-treated control-sample (100−(compound-sample*100)/control-sample)
[…] is calculated using Graphpad Prism; nonlinear fitting (log(inhibitor) vs. response—Variable slope).

[4] = biological target: recombinant human DPPI (Cathepsin C) (Homo sapiens (Human), UniProt P53634); assay: Inhibition of human DPPI (Cathepsin C); type: biochemical; conditions: substrate Gly-Arg-AMC
Chain of recombinant human DPPI (Cathepsin C) (P53634 231-394): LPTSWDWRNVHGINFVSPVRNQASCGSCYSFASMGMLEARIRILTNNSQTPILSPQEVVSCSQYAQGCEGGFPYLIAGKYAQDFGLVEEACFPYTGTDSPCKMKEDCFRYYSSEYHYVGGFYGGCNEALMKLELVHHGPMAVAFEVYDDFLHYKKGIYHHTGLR
Chain of recombinant human DPPI (Cathepsin C) (P53634 395-463): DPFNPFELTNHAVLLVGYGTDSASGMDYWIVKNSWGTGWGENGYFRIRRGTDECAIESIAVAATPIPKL
Chain of recombinant human DPPI (Cathepsin C) (P53634 25-134): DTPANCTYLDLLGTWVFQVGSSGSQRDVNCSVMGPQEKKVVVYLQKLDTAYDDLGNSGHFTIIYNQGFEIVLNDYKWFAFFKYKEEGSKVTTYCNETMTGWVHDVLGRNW
Method: Inhibition of Human DPPI (Cathepsin C)
Bovine serum albumin (BSA; Prod. No. A3059) and Dithiothreitol (DTT; Prod. No D0632) were from Sigma. […] The DPP1 inhibitor Gly-Phe-DMK was purchased from MP Biomedicals (Prod.-No. 03DK00625). The recombinant human DPPI was purchased from Prozymex. All other materials were of highest grade commercially available.
The following buffers were used: MES buffer: 25 mM MES, 50 mM NaCl, 5 mM DTT, adjusted to pH 6.0, containing 0.1% BSA; TAGZyme Buffer: 20 mM NaH2PO4, 150 mM NaCl adjusted to pH 6.0 with HCl
Then, 5 μL of substrate in MES buffer (final concentration 50 μM) were added. The microtiter plates were then incubated at room temperature for […] Then, the reaction was stopped by adding 10 μL of Gly-Phe-DMK in MES-buffer (final concentration 1 μM).
The analysis of the data was performed by calculating the percentage of fluorescence in the presence of test compound in comparison to the fluorescence of the vehicle control after subtracting the background fluorescence using the following formula: (RFU(sample)−RFU(background))*100/(RFU(control)−RFU(background))
Data from these calculations were used to generate IC50 values for inhibition of DPPI, respectively.

[5] = Homo sapiens, U-937, read-out: Reduction of NE-activity in U937 cells IC50

For `CN1C(=O)Cc2ccc(-c3ccc(CC(C#N)NC(=O)[C@H]4N[C@@H]5CC[C@H]4C5)c(F)c3)cc21` (stereo partly drawn) [Example 15], the “In vitro stability in human liver microsome incubations t½” value (shortened to “In vitro stability”) [1] was 2.17 h.

For `CN1C(=O)Cc2ccc(-c3cc(F)c(C[C@@H](C#N)NC(=O)[C@H]4N[C@@H]5CC[C@H]4C5)cc3F)cc21` [Example 31], the half-life at 1 μM [1] was 1.5 h.

In the case of `N#CC(Cc1ccc(-c2cnn(-c3ccccc3)c2)cc1F)NC(=O)[C@H]1N[C@@H]2CC[C@H]1C2` (stereo partly drawn) [Example 78], the “In vitro stability” value [1] is reported as 2.17 h.

With `N#C[C@H](Cc1ccc(N2CCN(CC3CCOC3)CC2)cc1F)NC(=O)[C@H]1N[C@@H]2CC[C@H]1C2` (stereo partly drawn) [Example 154] the IC50 [2] was 4600 nM, the IC50 [3, 5] was 4.6 nM and the half-life at 1 μM [1] was > 2.17 h. It also gave an IC50 [4] of 13.5 nM.

For `N#C[C@H](Cc1ccc(-c2ccc(S(=O)(=O)N3CCOCC3)cc2)cc1F)NC(=O)[C@H]1N[C@@H]2CC[C@H]1C2` [Example 217], the IC50 ([3]; read-out: Reduction of NE-activity in U937 cells IC50) was 7.5 nM.

Molecule `CC(C)c1cc(-c2ccc(C[C@@H](C#N)NC(=O)[C@H]3N[C@@H]4CC[C@H]3C4)c(F)c2)ccc1[S+](C)[O-]` (stereo partly drawn) [Example 251] has an IC50 [4] of 11.5 nM.

For `CS(=O)(=O)c1ccc(-c2ccc(C[C@@H](C#N)NC(=O)[C@H]3N[C@@H]4CC[C@H]3C4)c(F)c2)cc1OCC(F)F` [Example 252], the “In vitro stability” value [1] was 2.17 h.

With `N#C[C@H](Cc1ccc(N2CCCN3CCCC3C2)cc1F)NC(=O)[C@H]1N[C@@H]2CC[C@H]1C2` (stereo partly drawn) [Example 271] the “In vitro stability” value [1] was 2.17 h.

With `CS(=O)(=O)c1cc(OCC(F)(F)F)cc(-c2ccc(C[C@@H](C#N)NC(=O)[C@H]3N[C@@H]4CC[C@H]3C4)c(F)c2)c1` [Example 276] the “In vitro stability” value [1] was 2.17 h.

Molecule `CN1CCCN(S(=O)(=O)c2ccc(-c3ccc(C[C@@H](C#N)NC(=O)[C@H]4N[C@@H]5CC[C@H]4C5)c(F)c3)cc2)CC1` [Example 340] has an IC50 [3, 5] of 0.8 nM.

For `CN1CCC(N2C(=O)Cc3ccc(-c4ccc(C[C@@H](C#N)NC(=O)[C@H]5N[C@@H]6CC[C@H]5C6)c(F)c4)cc32)CC1` [Example 346], the “In vitro stability” value [1] was >2.17 h.

In the case of `N#C[C@H](Cc1ccc(N2CC3CCN(C4CCOC4)C3C2)cc1F)NC(=O)[C@H]1N[C@@H]2CC[C@H]1C2` (stereo partly drawn) [Example 348], the “In vitro stability” value [1] is reported as 2.17 h.
